Entries after “also recorded” stand apart in the source; their conditions may differ.
Key:
[1] = test system: apolipoprotein B100 of LDL; assay: Production of 3-chlorotyrosine in LDL modified by different oxidation systems; type: biochemical, human; conditions: 37° C.; for 3-chlorotyrosine content of LDL exposed to oxidation system: LDL 512 μg protein/ml, pH 7.4, 60 min or 24 h, FIG. 2, result in words
Experimental: FIG. 2 show production of 3-chlorotyrosine in LDL modified by different oxidation systems. LDL (512 μg protein/ml) was incubated at 37° C. in phosphate buffered saline (10 mM sodium phosphate, 150 mM NaCl, pH 7.4) alone (Control) or with the indicated oxidation system. The complete myeloperoxidase-H2 O2 --Cl^- system consisted of 20 nM myeloperoxidase and 100 μM H2 O2. HOCl was used at 100 μM. Horseradish peroxidase (10 μg/ml and lactoperoxidase (10 μg/ml) were used with 100 μM H2 O2. LDL was exposed to myeloperoxidase, HOCl, horseradish peroxidase and lactoperoxidase for 60 min.
All other oxidation reactions were carried out for 24 h. Final concentrations of oxidants were: peroxynitrite, 100 μM; CuSO4, 10 μM; CuSO4 and H2 O2, 100 μM and 2 mM, respectively; FeSO4, 10 μM; hemin, 10 μM; and glucose, 100 mM. LDL oxidation by lipoxygenase was performed in 50 mM borate, 150 mM NaCl supplemented with phospholipase A2 as previously described (45).
Reaction products were delipidated, acid hydrolyzed, and the 3-chlorotyrosine content of the amino acid hydrolysate determined by stable isotope dilution GC-MS analysis. Values are the mean of duplicate determinations. […] HRP, horseradish peroxidase; MPO, myeloperoxidase-peroxidase.
The complete system consisted of Buffer B (20 mM Na[PO4 ], pH 7.0, 100 μM DTPA) supplemented with LDL (512 μg protein/ml), myeloperoxidase (MPO; 40 nM), H2 O2 (100 μM) and Cl^- (as NaCl; 100 mM). After a 1 h incubation at 37° C., the 3-chlorotyrosine content was determined by stable isotope dilution GC-MS as described under "Methods." The limit of detection of the assay was <0.1 umol 3-chlorotyrosine per mol L-tyrosine. Values are the mean of duplicate determinations.

myeloperoxidase = biological target: T1, myeloperoxidase (Homo sapiens, UniProt P05164); assay: Chlorination of apolipoprotein B100 of LDL by the myeloperoxidase-H2O2-Cl- system (3-chlorotyrosine by GC-MS); type: biochemical; conditions: for 3-Chlorotyrosine/L-Tyrosine: Complete system (LDL 512 μg protein/ml, MPO 40 nM, H2O2 100 μM, Cl- 100 mM) plus additive at printed concentration, 1 h, 37° C., complete system alone 50, detection limit <0.1
T1 construct: light and heavy chains, homodimer) with H2O2, chloride and human LDL as substrate
T1 sequence (P05164 49-745): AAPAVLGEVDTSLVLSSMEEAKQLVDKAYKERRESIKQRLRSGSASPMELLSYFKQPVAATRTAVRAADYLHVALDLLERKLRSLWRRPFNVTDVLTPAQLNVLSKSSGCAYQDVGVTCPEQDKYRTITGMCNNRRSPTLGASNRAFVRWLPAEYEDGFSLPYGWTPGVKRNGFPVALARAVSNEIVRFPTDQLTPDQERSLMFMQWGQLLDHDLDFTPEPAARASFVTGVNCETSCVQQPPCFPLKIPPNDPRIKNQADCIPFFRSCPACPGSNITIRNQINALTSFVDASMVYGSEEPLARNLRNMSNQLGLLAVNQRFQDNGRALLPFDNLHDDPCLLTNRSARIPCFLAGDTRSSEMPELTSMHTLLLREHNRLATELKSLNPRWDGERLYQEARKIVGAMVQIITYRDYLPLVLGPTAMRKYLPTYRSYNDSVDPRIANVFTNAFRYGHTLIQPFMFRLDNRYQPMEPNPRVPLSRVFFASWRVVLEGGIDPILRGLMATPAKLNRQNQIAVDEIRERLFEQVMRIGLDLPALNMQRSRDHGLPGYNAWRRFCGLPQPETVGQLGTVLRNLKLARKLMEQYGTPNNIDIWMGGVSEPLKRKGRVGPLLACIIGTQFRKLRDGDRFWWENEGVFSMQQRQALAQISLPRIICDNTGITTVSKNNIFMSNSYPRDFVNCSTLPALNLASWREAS
Experimental: (§1) General Procedures--All glassware was rendered chlorine-demand free (<3% consumption of 1 mM HOCl in a 10 min incubation at 37° C. within a gas-tight vial as monitored by the oxidation of iodide to triiodide) prior to use (12,25,27). […] Myeloperoxidase (donor: hydrogen peroxide, oxidoreductase, EC 1.11.1.7) was isolated (final A430 /A280 ratio of 0.6) as previously described (28,29). Enzyme concentration was determined spectrophotometrically ε430 =[…] cm^-1; ref. 30). Human neutrophils were isolated by buoyant density centrifugation (31). Medium A (Hank's balanced salt solution (magnesium-, calcium-, phenol- and bicarbonate-free; Gibco-BRL, Gaithersburg, Md.), pH 7.2, supplemented with 100 μM diethylenetriamine pentaacetic acid (DTPA) was used for neutrophil isolation and experiments.
Following the addition of 10 pmol 3-[^13 C6 ]chlorotyrosine and 100 nmol L-[^13 C6 ]tyrosine, delipidated and dialyzed protein (~1-4 mg) suspended in Buffer B was dried under vacuum in a glass reaction vial. Each vial then received 0.5 ml HBr (6 N) containing 1% phenol. […]
Mass Spectrometric Analysis--n-Propyl, perheptafluorobutyl (HFB) and n-propyl, perpentafluoroproprionyl (PFP) derivatives of amino acids were prepared (38) and analyzed on a Hewlett Packard 5890 Gas Chromatograph interfaced with a Hewlett Packard 5988A Mass Spectrometer equipped with extended mass range. […]
Amino acids were quantified utilizing stable isotope dilution GC-MS analysis in the negative-ion chemical ionization mode (25,26). 3-Chlorotyrosine was monitored as its n-propyl-per-HFB derivative utilizing selected ion monitoring of the base peak at mass-to-charge ratio (m/z) 451 (M^.- -HFB), another prominent ion at m/z 629 (M^.- -HF), and their isotopically labeled internal standard ions at m/z 457 and 635, respectively.
L-Tyrosine was monitored as its n-propyl-per-HFB derivative using the base peak at m/z 417 (M^.- -HFB), another major ion at m/z 595 (M^.- -HF), and their labeled internal standard ions at m/z 423 and 601, respectively. […]

Human neutrophils = assay: Formation of 3-chlorotyrosine in LDL exposed to activated human phagocytes; type: cell-based; conditions: FIG. 1
Experimental: Human neutrophils (1×10^6 /ml) were incubated at 37° C. in Hank's Balanced Salt Solution supplemented with DTPA (100 μM) and LDL (512 μg protein/ml). Neutrophils were activated with phorbol ester (PMA; 200 nM) and maintained in suspensions by intermittent inversion (Complete neutrophil system).
Following a 60 min incubation, neutrophils were removed by centrifugation. The supernatant was delipidated and dialyzed, ^13 C-labeled internal standards were added, and the samples were then subjected to acid hydrolysis. The content of L-tyrosine and 3-chlorotyrosine in acid hydrolysates were determined by stable isotope dilution GC-MS analysis as described under "Method", below.
Additions or deletions to the complete system were as indicated. The final concentrations of additions were:
3-Chlorotyrosine content of LDL is normalized to the content of the precursor amino acid L-tyrosine. Values are the mean of duplicate determinations.
as §1

[2] = PMA-activated human neutrophils 1×10^6/ml, 60 min, 37° C., additive to complete neutrophil system

In the case of `OCl` [HOCl, hypochlorous acid], the “3-chlorotyrosine content of LDL exposed to oxidation system” value (“3-chlorotyrosine content of LDL exposed” for short) [1] is reported as “resulted in 3-chlorotyrosine formation; also recorded: Significant levels” and the 3-Chlorotyrosine/L-Tyrosine ([1]; LDL + HOCl (100 μM), no enzyme, 1 h) is reported as 68 umol/mol.

With `[N-]=[N+]=[N-].[Na+]` [NaN3] the 3-Chlorotyrosine/L-Tyrosine (myeloperoxidase) was 0 umol/mol and the “3-chlorotyrosine production in LDL incubated with activated phagocytes” value (Human neutrophils; [2]) was “inhibited”.

For `O=S(=O)([O-])[O-].[Cu+2]` [copper, CuSO4], the “3-chlorotyrosine content of LDL exposed” value [1] was “little change”.

For `C[C@H](CCC(=O)O)C[C@H](C)C[C@H](C)C(=O)/C=C(\O)[C@H](C)C[C@H](C)C/C=C/[C@@H](C)[C@@H](O)[C@@H](C)[C@@H](O)C[C@@H]1CC[C@@](C)([C@H]2CC[C@@](C)([C@@H](C)O)O2)O1` [ionomycin], the “3-chlorotyrosine production in LDL incubated with activated phagocytes” value (Human neutrophils; ionomycin (1 μM) added together with superoxide dismutase (10 μg/ml)) was “further generation”.

For `O=S(=O)([O-])[O-].[Fe+2]` [iron, FeSO4], the “3-chlorotyrosine content of LDL exposed” value [1] was “little change”.

In the case of `O=NOO` [peroxynitrite], the “3-chlorotyrosine content of LDL exposed” value [1] is reported as “little change”.

In the case of glucose, the “3-chlorotyrosine content of LDL exposed” value [1] is reported as “little change”.

In the case of horseradish peroxidase, the “3-chlorotyrosine content of LDL exposed” value [1] is reported as “little change”.

For lactoperoxidase, the “3-chlorotyrosine content of LDL exposed” value [1] was “little change”.

“superoxide dismutase: catalyzes the conversion of O2.- into H2O2” was tested, and the “3-chlorotyrosine production in LDL incubated with activated phagocytes” value (Human neutrophils; [2]) was “further generation”.

B1: Catalase: a peroxide scavenger (protein, UniProt P00432 2-527, looked up)
Catalase: ADNRDPASDQMKHWKEQRAAQKPDVLTTGGGNPVGDKLNSLTVGPRGPLLVQDVVFTDEMAHFDRERIPERVVHAKGAGAFGYFEVTHDITRYSKAKVFEHIGKRTPIAVRFSTVAGESGSADTVRDPRGFAVKFYTEDGNWDLVGNNTPIFFIRDALLFPSFIHSQKRNPQTHLKDPDMVWDFWSLRPESLHQVSFLFSDRGIPDGHRHMNGYGSHTFKLVNANGEAVYCKFHYKTDQGIKNLSVEDAARLAHEDPDYGLRDLFNAIATGNYPSWTLYIQVMTFSEAEIFPFNPFDLTKVWPHGDYPLIPVGKLVLNRNPVNYFAEVEQLAFDPSNMPPGIEPSPDKMLQGRLFAYPDTHRHRLGPNYLQIPVNCPYRARVANYQRDGPMCMMDNQGGAPNYYPNSFSAPEHQPSALEHRTHFSGDVQRFNSANDDNVTQVRTFYLKVLNEEQRKRLCENIAGHLKDAQLFIQKKAVKNFSDVHPEYGSRIQALLDKYNEEKPKNAVHTYVQHGSHLSAREKANL
In the case of B1, the 3-Chlorotyrosine/L-Tyrosine (myeloperoxidase) is reported as 0 umol/mol, the “Chlorination of apolipoprotein B100 (3-chlorotyrosine production) by myeloperoxidase-H2O2-Cl- system” value (myeloperoxidase; additive to complete system, result in words) is reported as “blocked” and the “3-chlorotyrosine production in LDL incubated with activated phagocytes” value (Human neutrophils; [2]) is reported as “inhibited”.

Source: patent US6268220A, “Diagnostic method for atherosclerosis” (Washington University, priority 1996, dated 2001)
